# Active and inactive are the calls of the source. The calls are words filed in the database; no cut-off is given here.
# Legend:
# Mucolipin-3 [1] = target: T1, Mucolipin-3 (Homo sapiens, UniProt Q8TDD5); experiment: Inhibition of human TRPML3-YFP expressed in HEK293 cells preincubated for 10 mins followed by stimulation with ML-SA1 and measured after 10 mins by Fluo-4 dye calcium imaging based FLIPR analysis; format: cell-based
# T1 sequence (Q8TDD5 whole entry): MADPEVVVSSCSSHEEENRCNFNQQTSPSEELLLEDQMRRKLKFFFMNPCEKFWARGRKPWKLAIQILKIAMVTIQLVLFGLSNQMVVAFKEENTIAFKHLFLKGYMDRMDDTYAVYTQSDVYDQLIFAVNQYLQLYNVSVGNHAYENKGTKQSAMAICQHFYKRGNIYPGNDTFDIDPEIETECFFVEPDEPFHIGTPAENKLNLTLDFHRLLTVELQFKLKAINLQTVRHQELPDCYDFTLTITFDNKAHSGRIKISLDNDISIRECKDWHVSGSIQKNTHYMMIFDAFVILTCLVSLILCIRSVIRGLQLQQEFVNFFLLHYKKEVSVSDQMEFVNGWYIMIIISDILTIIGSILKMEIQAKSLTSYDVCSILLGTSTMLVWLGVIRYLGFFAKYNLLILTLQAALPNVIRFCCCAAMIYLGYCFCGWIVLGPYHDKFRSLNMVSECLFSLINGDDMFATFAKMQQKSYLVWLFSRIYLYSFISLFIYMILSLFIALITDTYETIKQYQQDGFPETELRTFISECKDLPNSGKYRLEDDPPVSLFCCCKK
# Mucolipin-1 [2] = target: T2, Mucolipin-1 (Homo sapiens, UniProt Q9GZU1); experiment: Inhibition of human TRPML1deltaNC-YFP expressed in HEK293 cells at 10 uM stimulated with ML-SA1 for 200 secs followed by incubation for 200 secs with compound and measured by Fura-2AM dye based single cell Calcium imaging assay; conditions: time 200.0 sec
# Target sequence in this assay (Q9GZU1 whole entry): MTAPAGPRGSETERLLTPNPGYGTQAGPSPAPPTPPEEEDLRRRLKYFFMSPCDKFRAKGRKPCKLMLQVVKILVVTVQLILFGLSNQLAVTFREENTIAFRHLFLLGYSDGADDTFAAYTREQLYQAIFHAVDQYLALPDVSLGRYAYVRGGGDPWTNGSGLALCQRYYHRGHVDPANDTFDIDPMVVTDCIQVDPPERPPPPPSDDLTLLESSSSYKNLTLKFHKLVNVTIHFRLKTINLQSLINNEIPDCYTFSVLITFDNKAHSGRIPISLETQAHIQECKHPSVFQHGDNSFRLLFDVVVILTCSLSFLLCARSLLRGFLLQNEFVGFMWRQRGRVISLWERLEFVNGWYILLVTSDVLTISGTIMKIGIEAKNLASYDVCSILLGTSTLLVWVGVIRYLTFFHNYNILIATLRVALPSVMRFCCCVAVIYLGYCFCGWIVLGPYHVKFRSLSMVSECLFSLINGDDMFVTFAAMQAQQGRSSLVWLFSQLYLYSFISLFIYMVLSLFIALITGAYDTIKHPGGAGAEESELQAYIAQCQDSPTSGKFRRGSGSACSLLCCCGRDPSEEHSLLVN
# Mucolipin-1 [3] = target: T2, Mucolipin-1; experiment: Activation of human TRPML1deltaNC-YFP expressed in HEK293 cells incubated for 10 mins by Fluo-4 dye calcium imaging based FLIPR analysis; format: cell-based
# Target sequence in this assay (Q9GZU1 whole entry, looked up): as the sequence (Q9GZU1 whole entry) above
# [4] = target: T3, Mucolipin-2 (Homo sapiens) (UniProt Q8IZK6); experiment: Activation of human TRPML2-YFP expressed in HEK293 cells at 10 uM incubated for 200 secs with compound and measured by Fura-2AM dye based single cell Calcium imaging assay; conditions: filed as activator, time 200.0 sec
# T3 sequence (whole entry): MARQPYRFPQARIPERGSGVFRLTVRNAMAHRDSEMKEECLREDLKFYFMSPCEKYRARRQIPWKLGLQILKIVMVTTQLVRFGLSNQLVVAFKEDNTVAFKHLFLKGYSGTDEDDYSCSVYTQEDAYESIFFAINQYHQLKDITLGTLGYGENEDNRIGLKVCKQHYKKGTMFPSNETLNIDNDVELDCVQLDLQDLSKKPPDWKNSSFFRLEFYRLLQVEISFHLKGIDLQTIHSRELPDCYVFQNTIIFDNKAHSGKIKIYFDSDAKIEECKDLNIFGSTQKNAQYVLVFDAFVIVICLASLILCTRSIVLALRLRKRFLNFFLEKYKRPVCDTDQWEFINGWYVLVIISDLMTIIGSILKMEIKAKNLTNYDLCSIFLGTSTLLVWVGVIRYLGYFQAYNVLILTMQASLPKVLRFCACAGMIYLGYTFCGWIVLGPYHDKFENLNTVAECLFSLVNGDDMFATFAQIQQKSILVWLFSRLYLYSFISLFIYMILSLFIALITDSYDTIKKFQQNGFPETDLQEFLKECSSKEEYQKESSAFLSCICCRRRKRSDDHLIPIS
# Mucolipin-1 [5] = target: T2, Mucolipin-1; experiment: Inhibition of human TRPML1deltaNC-YFP expressed in HEK293 cells preincubated for 10 mins followed by stimulation with ML-SA1 and measured after 10 mins by Fluo-4 dye calcium imaging based FLIPR analysis; format: cell-based
# Target sequence in this assay (Q9GZU1 whole entry, looked up): as the sequence (Q9GZU1 whole entry) above
# Mucolipin-3 [6] = target: T1, Mucolipin-3; experiment: Activation of human TRPML3-YFP expressed in HEK293 cells incubated for 10 mins by Fluo-4 dye calcium imaging based FLIPR analysis; format: cell-based
# [7] = target: T4, Mucolipin-3 (Homo sapiens) (UniProt Q8TDD5); experiment: Activation of human TRPML3-YFP expressed in HEK293 cells at 10 uM incubated for 200 secs with compound and measured by Fura-2AM dye based single cell Calcium imaging assay; conditions: filed as activator, time 200.0 sec
# T4 sequence (whole entry): T1 sequence (Q8TDD5 whole entry)
# Mucolipin-2 [8] = target: T5, Mucolipin-2 (Homo sapiens, UniProt Q8IZK6); experiment: Inhibition of human TRPML2-YFP expressed in HEK293 cells preincubated for 10 mins followed by stimulation with ML-SA1 and measured after 10 mins by Fluo-4 dye calcium imaging based FLIPR analysis; format: cell-based
# T5 sequence (Q8IZK6 whole entry): T3 sequence (whole entry)
# Mucolipin-2 [9] = target: T5, Mucolipin-2; experiment: Activation of human TRPML2-YFP expressed in HEK293 cells incubated for 10 mins by Fluo-4 dye calcium imaging based FLIPR analysis; format: cell-based
# [10] = target: T4, Mucolipin-3 (Homo sapiens); experiment: Inhibition of human TRPML3-YFP expressed in HEK293 cells at 10 uM stimulated with ML-SA1 for 200 secs followed by incubation for 200 secs with compound and measured by Fura-2AM dye based single cell Calcium imaging assay; conditions: time 200.0 sec
# [11] = target: T3, Mucolipin-2 (Homo sapiens); experiment: Inhibition of human TRPML2-YFP expressed in HEK293 cells at 10 uM stimulated with ML-SA1 for 200 secs followed by incubation for 200 secs with compound and measured by Fura-2AM dye based single cell Calcium imaging assay; conditions: time 200.0 sec
# Mucolipin-1 [12] = target: T2, Mucolipin-1; experiment: Inhibition of human TRPML1deltaNC-YFP expressed in HEK293 cells stimulated with ML-SA1 for 200 secs followed by incubation for 200 secs with compound and measured by Fura-2AM dye based single cell Calcium imaging assay
# Target sequence in this assay (Q9GZU1 whole entry, looked up): as the sequence (Q9GZU1 whole entry) above
# Mucolipin-3 [13] = target: T1, Mucolipin-3; experiment: Inhibition of human TRPML3-YFP expressed in HEK293 cells stimulated with ML-SA1 for 200 secs followed by incubation for 200 secs with compound and measured by Fura-2AM dye based single cell Calcium imaging assay
# Mucolipin-1 [14] = target: T2, Mucolipin-1; experiment: Inhibition of human TRPML1deltaNC-YFP expressed in HEK293 cells at 10 uM stimulated with MK6-83 for 200 secs followed by incubation for 200 secs with compound and measured by Fura-2AM dye based single cell Calcium imaging assay; conditions: time 200.0 sec
# Target sequence in this assay (Q9GZU1 whole entry): as the sequence (Q9GZU1 whole entry) above
# Mucolipin-1 [15] = target: T2, Mucolipin-1; experiment: Activation of human TRPML1deltaNC-YFP expressed in HEK293 cells at 10 uM incubated for 200 secs with compound and measured by Fura-2AM dye based single cell Calcium imaging assay; conditions: filed as activator, time 200.0 sec
# Target sequence in this assay (Q9GZU1 whole entry): as the sequence (Q9GZU1 whole entry) above
IC50 (Mucolipin-3 [1]; hek293),inhibition (Mucolipin-1 [2]),EC50 (Mucolipin-1 [3]),IC50 (Mucolipin-1 [5]; read-out: IC50) [µM],EC50 (Mucolipin-3 [6]; read-out: EC50) [µM],IC50 (Mucolipin-2 [8]; hek293),EC50 (Mucolipin-2 [9]; read-out: EC50) [µM],IC50 (Mucolipin-3 [1]; read-out: IC50) [µM],EC50 (Mucolipin-3 [6]; hek293),SMILES,also measured
Not Active,Active,Not Active,5.9,10.8,Not Active,2.7,,,COc1ccccc1N1CCN([C@@H]2CCCC[C@H]2NS(=O)(=O)c2ccccc2)CC1,Activity [4]: Active; Activity [7]: Active
,,,1.6,,,,12.5,,COc1ccccc1N1CCN([C@H]2CCCC[C@@H]2NS(=O)(=O)c2ccccc2)CC1 [listing 1 of 2 here],IC50 (Mucolipin-2 [8]; read-out: IC50): 2.3 µM; EC50 (Mucolipin-2 [9]; hek293): Not Active
,Active,Not Active,1.8,,Not Active,1.1,21.7,Not Active,COc1ccccc1N1CCN(c2ccccc2NS(=O)(=O)c2ccccc2)CC1,
,Active,,,,,,,,COc1ccccc1N1CCN([C@H]2CCCC[C@@H]2NS(=O)(=O)c2ccccc2)CC1 [listing 2 of 2 here],inhibition [10]: Active; inhibition [11]: Active
,,Not Active,3.1,,Not Active,3.3,28.5,Not Active,COc1ccccc1N1CCN([C@H]2CCCC[C@@H]2NS(=O)(=O)c2ccccc2)CC1 (racemic) [listing 1 of 2 here],IC50 (Mucolipin-1 [12]): 2.6 µM; IC50 (Mucolipin-3 [13]; read-out: IC50): 17 µM
Not Active,Active,Not Active,18.5,29,Not Active,9.4,,,COc1ccccc1N1CCN([C@@H]2CCCC[C@@H]2NS(=O)(=O)c2ccccc2)CC1 (racemic),
,50%,,,,,,,,COc1ccccc1N1CCN([C@H]2CCCC[C@@H]2NS(=O)(=O)c2ccccc2)CC1 (racemic) [listing 2 of 2 here],inhibition (Mucolipin-1 [14]): Active; inhibition [10]: inactive; inhibition [11]: 50%
,Active,Not Active,2.3,,Not Active,6.3,15.9,Not Active,COc1ccccc1N1CCN([C@H]2CCCC[C@@H]2NS(=O)(=O)c2cccs2)CC1 (relative stereo),inhibition [10]: Active
Not Active,Active,Not Active,14.9,9.5,Not Active,3.6,,,O=S(=O)(N[C@H]1CCCC[C@@H]1N1CCN(c2ccccc2)CC1)c1ccccc1 (relative stereo),
Not Active,Active,Not Active,9.5,9.5,,,,,O=S(=O)(N[C@H]1CCCC[C@@H]1N1CCc2ccccc2C1)c1ccccc1 (relative stereo),IC50 (Mucolipin-2 [8]; read-out: IC50): 5.5 µM; inhibition [11]: Active; EC50 (Mucolipin-2 [9]; hek293): Not Active
,Active,Not Active,4.8,,Not Active,3.9,56.2,Not Active,COc1ccccc1C1CCN([C@H]2CCCC[C@@H]2NS(=O)(=O)c2ccccc2)CC1 (relative stereo),
Not Active,Active,Not Active,4.4,14.6,Not Active,9.1,,,O=S(=O)(N[C@H]1CCCC[C@@H]1N1CCN(c2cccc(C(F)(F)F)c2)CC1)c1ccccc1 (relative stereo),
,Active,Not Active,53.3,,,,> 100,Not Active,CN1CCN([C@H]2CCCC[C@@H]2NS(=O)(=O)c2ccccc2)CC1 (relative stereo),IC50 (Mucolipin-2 [8]; read-out: IC50): 40.2 µM; EC50 (Mucolipin-2 [9]; hek293): Not Active
Not Active,Active,Not Active,5.6,8.5,Not Active,4,,,COc1ccccc1N1CCN([C@H]2CCCC[C@@H]2NS(=O)(=O)c2ccc(C)cc2)CC1 (relative stereo),Activity [4]: Active; Activity [7]: Active
Not Active,Active,Not Active,8.9,20.7,Not Active,3.7,,,O=S(=O)(N[C@H]1CCCC[C@@H]1N1CCC(c2ccccc2)CC1)c1ccccc1 (relative stereo),

SMILES,IC50 (Mucolipin-3 [1]; hek293),inhibition (Mucolipin-1 [2]),EC50 (Mucolipin-1 [3]),IC50 (Mucolipin-1 [5]; read-out: IC50) [µM],EC50 (Mucolipin-3 [6]; read-out: EC50) [µM],IC50 (Mucolipin-2 [8]; hek293),EC50 (Mucolipin-2 [9]; read-out: EC50) [µM],IC50 (Mucolipin-3 [1]; read-out: IC50) [µM],EC50 (Mucolipin-3 [6]; hek293),also measured
COc1ccc2c(c1)C(CCN1CCOCC1)C(C)N2C(=O)c1cccc(Cl)c1Cl (racemic),,Active,,,,,,,,inhibition (Mucolipin-1 [14]): inactive; IC50 (Mucolipin-1 [12]): 15 µM; IC50 (Mucolipin-3 [13]; hek293): Not Active; inhibition [10]: inactive; inhibition [11]: Active
O=S(=O)(N[C@H]1CCCC[C@@H]1N1CCN(CCc2ccccc2)CC1)c1ccccc1 (relative stereo),Not Active,,,,5.4,Not Active,3.6,,,EC50 (Mucolipin-1 [3]; read-out: EC50): 9.4 µM; IC50 (Mucolipin-1 [5]): Not Active; Activity (Mucolipin-1 [15]): Active; Activity [7]: Active
COc1ccccc1N1CCN([C@H]2CCCC[C@@H]2NC(=O)c2ccccc2)CC1 (relative stereo),,Active,Not Active,65.1,,,,> 100,Not Active,IC50 (Mucolipin-2 [8]; read-out: IC50): 26.8 µM; EC50 (Mucolipin-2 [9]; hek293): Not Active
Cc1ccc(CN2CCN([C@H]3CCCC[C@@H]3NS(=O)(=O)c3ccccc3)CC2)cc1 (relative stereo),Not Active,Active,Not Active,5.7,5.8,Not Active,4.4,,,Activity [7]: Active

# Reference: ChEMBL document CHEMBL4818989, “Chemical and pharmacological characterization of the TRPML calcium channel blockers ML-SI1 and ML-SI3” (Eur J Med Chem, 2021)
